The text below walks through data of patent US8217006B2, “Inhibiting GS-FDH to modulate no bioactivity” (Duke University, priority 2001, dated 2012).

Series [1] deals with sfa1 mutant cells. Nature of the series: Growth of GS-FDH-deficient yeast under nitrosative or oxidative stress. Type of series: cell-based. An excerpt: Genet. 237, 351 (1993) (SFA1/YDL168w) was replaced with dominant selectable cassettes Kan 2 (resistant to G418) or hphMX (resistant to hydromycin) by direct targeting as described in Wach, A., et al., Yeast 10, 1793 (1994). KanMX2 is described in Wach, A. et al., Yeast 10, 1793 (1994). hphMX is described in Goldstein and MeCuskler, Yeast 15, 1541 (1991).

The subject of series [2] is angina. Description: Example XXVII: angina treated with nitroglycerine and GS-FDH inhibitor. In kind it is in vivo, human. Conditions: 600 mg TIE, concomitantly with nitroglycerine.
For series [3], the system named is blood pressure. Conditions: 600 milligrams BID; three weeks later; 160/90 before. An excerpt:
A person presents to their primary care physician.

The subject of series [4] is benign prostatic hypertrophy. Conditions: 600 mg three times a day; over three months.
Series [5] concerns wheezing. Conditions: intravenous infusion 50 mg/kg Q.6 hours; person.
The test system of series [6] is malignant hypertension. Description: Example XXVIII: heart failure and malignant hypertension. Type of series: in vivo, human. An excerpt: A person presents with heart failure and malignant hypertension.
For series [7], the system named is ARDS. Conditions: inhaled 10 mM in 3 cc normal saline; from 60 mm Hg on 100% oxygen; over 1 hour. The source says:
A person develops ARDS as a complication of urosepsis. They are intubated and transferred to the Intensive Care Unit.

Series [8] relates to swollen abdomen and elevated LSTs. The note with it: infusion 200 milligrams per kilogram every 6 hours for two weeks.
In series [9] the test system is 90% lesion of the left anterior descending coronary artery. The note with it: 600 mg P.O. three times a day for a month. An excerpt: A person has a stent placed for 90% lesion of the left anterior descending coronary artery.
Series [10] has as its system liver function. The note with it: infusion 200 milligrams per kilogram every 6 hours; over the following week. The source says: A child presents to the Emergency Room having ingested a toxic dose of Tylenol. […] This is an example of treating a patient for a disease where there is risk of apoptosis occurring.
Series [11] concerns squamous cell cancer. The note with it: intravenously 200 milligrams per kilogram four times a day; stage 3B before.
Series [12] relates to cystic fibrosis. Description: Example II: patient with cystic fibrosis. In kind it is in vivo, human. Conditions: inhaled S-nitrosoglutathione (10 mM in 3 cc) in combination with D-glutathione (3 mM in 10 cc); over the following day. An excerpt:
A person with cystic fibrosis presents to the Emergency Room with difficulty breathing and a fever.

Series [13] relates to pinworm. The note with it: 1 gram daily for three days.
The subject of series [14] is Hodgkins disease. Conditions: 1 gram three times a day for a month. The source says:
A person has a biopsy done on an axillary node which establishes the diagnosis of Hodgkins disease.

In series [15] the test system is severe heart failure. The note with it: infusion 1 gram TED for 10 days. The source says:
A person with acute viral myocarditis develops severe heart failure. […] They are placed on the transplant list.

Series [16] concerns atherosclerosis. The note with it: 600 mg TID for a week.
The test system of series [17] is unstable angina. Conditions: intravenous infusion 100 mg per kg Q6 hours; on betablockers and nitrates. The source says: A person status post CABG×2 presents with unstable angina.
Series [18] deals with viral pneumonia. The note with it: inhaled, 3 mM/3 cc normal saline four times a day.
Description: A person status post lung transplant is admitted to the hospital with viral pneumonia.
The nature of series [19]: GSNO decomposition in reaction buffer, no lysate (Saville assay). Type of series: biochemical. Conditions: 200 μM GSNO, 37° C., 5 minutes. The protocol:
After precipitation of the reaction mixtures with trichloroacetic acid (8.3% final concentration), the supernatants were diluted threefold in the buffer and nitrosothiol levels in the reaction mixture were measured by the Saville assay as described in Stamler, J. S., Science 276, 2034 (1997). Data are the mean of two independent experiments.

Series [20] relates to human HeLa cells. Description: GSNO metabolizing activity of HeLa cell lysate (Saville assay). The note with it: HeLa lysate 4 μg/ml, 200 μM GSNO, 37° C., 5 minutes. Type of series: biochemical. The protocol:
(§1) The cells were from cell lines obtained from the ATCC. Cells were homogenized by sonication in a solution containing 20 mM Tris-HCl (pH 8.0), 0.5 mM EDTA, 0.1% NP-40 and 1 mM phenylmethylsulfonyl fluoride (PMSF). […] After precipitation of the reaction mixtures with trichloroacetic acid (8.3% final concentration), the supernatants were diluted threefold in the buffer and nitrosothiol levels in the reaction mixture were measured by the Saville assay as described in Stamler, J. S., Science 276, 2034 (1997). Data are the mean of two independent experiments.

For series [21], the system named is wild-type Y190 cells. Nature of the series: Growth of wild-type yeast treated with GSNO. In kind it is cell-based. Conditions: same concentrations as for the mutants.
The subject of series [22] is human epithelial A549 cells. Description: GSNO metabolizing activity of A549 cell lysate (Saville assay). Type of series: biochemical. The note with it: A549 lysate 4 μg/ml, 200 μM GSNO, 37° C., 5 minutes. The protocol: as §1
Series [23] concerns human monocyte THP-1 cells. Description: GSNO metabolizing activity of THP-1 cell lysate (Saville assay). In kind it is biochemical. Conditions: THP-1 lysate 4 μg/ml, 200 μM GSNO, 37° C., 5 minutes. The protocol: as §1
Series [24] concerns injured mouse liver cells deficient in GS-FDH. Description: Survival of GS-FDH-deficient cells from cytokine-injured mouse liver treated with NO synthase inhibitor. Type of series: cell-based. The note with it: same cells but deficient in GS-FDH; 1 millimolar. The protocol:
(§2) Hepatocytes of wild-type mice and their GS-FDH^−/− littermates were harvested after perfusion of the livers with Liberase (Roche), and purified by repeated differential sedimentation at 50×g, followed by centrifugation over a 30% Percoll solution. […] The cells were then cultured in the presence of recombinant mouse tumor necrosis factor-α (500 units/ml), interferon-gamma (100 units/ml), interleuken-1β (200 units/ml) and lipopolysaccharide (LPS, 10 μg/ml; E. coli 0128:B12; Sigma) for 14 and 40 hours. Nitrosylation levels in hepatocytes were measured as described in Eu, J., et al., Biochemistry 39, 1040-1047 (2000). […] See Liu, L. and Stamler, J. S., Cell Death and Differentiation 6, 937-942 (1999).

Series [25] has as its system Cells from an injured mouse liver. Nature of the series: Survival of cells from cytokine-injured mouse liver treated with NO synthase inhibitor. The note with it: 1 millimolar. In kind it is cell-based. The protocol: as §2
In series [26] the target is T1, mouse GS-FDH (Mus musculus, UniProt P28474).
T1 construct: GSNO-metabolizing activity of RAW 264.7 cells was recovered in a single function following anion exchange on a MonoQ column; endogenous in cells; host or cells: RAW 264.7 mouse macrophages (ATCC); purified by ammonium sulfate precipitation, MonoQ and 5' AMP Sepharose 4B
Description: Kinetic analysis of purified GSNO reductase (GS-FDH) from RAW 264.7 cells. In kind it is biochemical. The note with it: purified protein.
Description: Cells were homogenized by sonication in a solution containing 20 mM Tris-HCl (pH 8.0), 0.5 mM EDTA, 0.1% NP-40 and 1 mM phenylmethylsulfonyl (PMSF).
Further purification over a 5′ AMP Sepharose column yielded a single band of about 43 kDa in a silver-stained SDS-PAGE gel. […] After dialysis against 20 mM Tris-HCl (pH 8.0), the proteins were fractionated on a MonoQ column with increasing concentrations of NaCl. […] SDS-PAGE and Coomassie blue staining gave the single band of about 43 kDa.
The purified protein was digested by trypsin and the resulting peptides were analyzed by mass spectrometry. Peptide mass database search with GPMAW program identified the protein as mouse GS-FDH(SP-P28474) with high scores, matching 8 fragments (42% coverage) to mouse GS-FDH.

The subject of series [27] is impotence. Nature of the series: Example XIII: diabetic patient with impotence. Type of series: in vivo, human. The source says:
A diabetic with a history of impotence presents to their urologist. […] Their physician adds topical mycophenolic acid (5% paste) with good results.

Series [28] deals with tumors. The note with it: previous use; cited from earlier work.
The subject of series [29] is restenosis. Description: Example X: restenosis post-angioplasty, drug-coated stent. In kind it is in vivo, human. Conditions: Nir stent coated with drug, 30% per polymer. An excerpt:
The patient was discharged the following day, and did well.

Series [30] deals with intractable angina. Nature of the series: Example VIII: patient with intractable angina. Type of series: in vivo, human. Conditions: 6 grams injected at 20 milligrams per milliliter, daily for seven days; by six weeks. The protocol:
A person with intractable angina is administered ribavirn as 6 grams diluted to a final volume of 300 cc in sterile water and injected at a final concentration of 20 milligrams per milliliter, given daily for seven days.

Series [31] deals with chronic psoriasis. Nature of the series: Example XI: patient with chronic psoriasis. In kind it is in vivo, human. The note with it: topical paste, 5% with acetylsalicylic acid 2%, 8 hours a day, two weeks. The protocol:
A person with chronic psoriasis presents at the dermatologist. A paste comprised of acetylsalicylic acid, 2%, combined with 5% ribavirin was applied topically for 8 hours a day.

The subject of series [32] is pulmonary embolism. Description: Example IX: patient with pulmonary embolism. In kind it is in vivo, human. Conditions: inhaled, 6 grams in 300 cc, aerosol, 12 hours/day for three days.
Description: A person presents with shortness of breath and hemoptysis. […] Treatment is carried out for 12 hours/day for three days.
Series [33] has as its system ringworm. Description: Example XVI: ringworm. In kind it is in vivo, human. Conditions: topical ointment 5%, daily for a week.

T1 sequence (P28474 whole entry): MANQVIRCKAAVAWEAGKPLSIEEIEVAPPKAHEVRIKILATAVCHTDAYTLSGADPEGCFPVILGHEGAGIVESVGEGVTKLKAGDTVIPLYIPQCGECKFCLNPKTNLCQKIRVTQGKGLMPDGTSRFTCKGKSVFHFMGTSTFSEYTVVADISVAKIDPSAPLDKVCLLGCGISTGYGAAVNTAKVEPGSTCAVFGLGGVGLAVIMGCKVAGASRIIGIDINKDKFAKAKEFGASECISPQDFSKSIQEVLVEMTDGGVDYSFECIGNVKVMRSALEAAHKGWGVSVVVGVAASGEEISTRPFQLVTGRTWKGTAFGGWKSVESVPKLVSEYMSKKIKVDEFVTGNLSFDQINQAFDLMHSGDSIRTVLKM

Regarding `OO` [Compound H2O2, H2O2], the “sensitivity to the toxic effects, mutant versus wild-type Y190 cells” value in series [1] (sfa1 mutant cells) was “no more sensitive”.

For the molecule `N[C@H](CCC(=O)N[C@H](CS)C(=O)NCC(=O)O)C(=O)O` [D-glutathione], the “symptoms (chest pain)” value in [2] is recorded as “total relief of symptoms”; in series [17] it was “relief of their symptoms”. The blood pressure in series [3] was 140/80. The “symptoms (urinary frequency and hesitancy)” value in [4] is “symptoms gradually resolve”. In addition, in series [5], the breathing entry is listed as “breathing improves”. Moreover, the “Blood pressure, systolic” value in series [6] (600 mg TID coadministered with nitroprusside, from 200) is reported as 160. Further, the PO2 in series [7] was 80 mm/Hg. Also, the “swelling and LSTs” value in [8] is “swelling and elevated LSTs are reduced”. Further, in series [9], the “course after stent placement” value is given as “does well”. The liver function result in [10] is recorded as “gradual normalization of liver function”. The “tumor stage on restaging” value in series [11] turned out to be 3A. For the same molecule, the “symptoms (difficulty breathing, fever)” value in series [12] is “symptoms resolve”. In addition, in series [13], the signs and symptoms entry was “signs and symptom resolve”. Moreover, the adenopathy entry in series [14] is given as “resolution of adenopathy”. Further, the clinical course result in [15] is recorded as “stabilized their deteriorating course”. In addition, in series [16], the response to acetylcholine result is recorded as “improved response to acetylcholine”. Moreover, the “symptoms of cough and shortness of breath” value in series [18] was “resolution of symptoms of cough and shortness of breath”.

Take `N[C@@H](CCC(=O)N[C@@H](CSN=O)C(=O)NCC(=O)O)C(=O)O` [GSNO, S-nitrosoglutathione]: the GSNO metabolizing activity in series [19] (+NADH) is 0.0%; in series [19] (+NADPH + GSH + ASA) it was 0.7%; in [19] (Buffer only) it was 6.2%; in series [20] (+NADH), 84.2%; in series [20] (+NADPH + GSH + ASA), 35.4%; in series [20] (Buffer only) it was 29.9%. Moreover, the GSNO metabolizing activity stood at 72.3% in [22] (+NADH); 43.9% in series [22] (+NADPH + GSH + ASA); 14.7% in series [22] (Buffer only); 90.8% in series [23] (+NADH); 22.6% in series [23] (+NADPH + GSH + ASA); 18.8% in [23] (Buffer only). Further, the “symptoms (difficulty breathing, fever)” value in series [12] is on record as “symptoms resolve”. Further, the Growth of cells result in series [1] (sfa1 mutant cells (G418^r and hygromicin^r clones)) is “markedly inhibited”; in series [21] it was “little effect”.

For the molecule `CNC(=N)NCCC[C@H](N)C(=O)O` [N^G-methyl-L-arginine], the cell death entry in series [24] is listed as “died to a lesser extent”; in [25] (liver injured by cytokine administration), “found to die”. Moreover, the “nitric oxide synthase activity left” value in series [25] was 20%.

Consider `N[C@@H](CCC(=O)N[C@@H](CSCO)C(=O)NCC(=O)O)C(=O)O` [S-hydroxymethylglutathione], for which, in [26], the “specific activity for oxidation, as share of the GSNO reducing activity” value is recorded as “about 6%”.

In the case of `CCCc1nn(C)c2c(=O)[nH]c(-c3cc(S(=O)(=O)N4CCN(C)CC4)ccc3OCC)nc12` [Viagra], in [27] (Viagra alone), the impotence entry is “no improvement”.

Consider `NC(=O)c1coc([C@@H]2O[C@H](CO)[C@@H](O)[C@H]2O)c1` [furanfurin, 5-β-D-ribofuranosylfuran-3-carboxamide], for which the “activity as antitumor agent” value in series [28] was “inactive”.

`COc1c(C)c2c(c(O)c1C/C=C(\C)CCC(=O)O)C(=O)OC2` [mycophenolic acid]: in series [29], the “outcome of stent deployment” value is recorded as “successful results”. Moreover, the impotence result in [27] (topical 5% paste added to Viagra) is “good results”.

On to `NC(=O)c1ncn([C@@H]2O[C@H](CO)[C@@H](O)[C@H]2O)n1` [ribavirin], for which, in [28], the “activity as antitumor agent” value was “inactive”. For the same molecule, the angina entry in series [30] is “angina had improved”. The psoriatic lesion entry in [31] is reported as “psoriatic lesion had resolved”. In [32], the “symptoms (shortness of breath, hemoptysis)” value was “improvement in symptoms”. In addition, the skin lesion entry in series [33] is reported as “skin lesion resolve”.

As to nitroprusside, in series [6] (nitroprusside alone, 1.0 μg/kg/min IV infusion for 10 minutes, from 240), the “Blood pressure, systolic” value is 200.
